Test results from ChEMBL document CHEMBL4651402, “Screening of ~5500 FDA-approved drugs and clinical candidates for anti-SARS-CoV-2 activity” (2021).
Several values for one entry are separate records, joined by “and”; a condition that tells them apart may be missing. Equal entries are not always repeated.

Experiments:
SARS-CoV-2 [1] = conditions: vero c1008
SARS-CoV-2 [2] = experiment: microbe, parasite or virus in culture; conditions: Severe acute respiratory syndrome coronavirus 2, Vero C1008, 48 h
in vitro = conditions: chlorocebus sabaeus, Vero E6 (Vero C1008) cells
SARS-CoV-2 [3] = experiment: microbe, parasite or virus in culture; assay type: functional, organism-based, Chlorocebus sabaeus, Vero C1008
Vero C1008 = conditions: chlorocebus sabaeus, vero c1008, 48 h
[4] = Severe acute respiratory syndrome coronavirus 2, Vero C1008, 48 h, read-out: IC50
[5] = Severe acute respiratory syndrome coronavirus 2, Vero C1008, 48 h, read-out: pIC50 (converted)

Compound | IC50 (SARS-CoV-2 [1]) | pIC50 (SARS-CoV-2 [1]) | IC50 (SARS-CoV-2 [2]) | IC50 (SARS-CoV-2 [2]; read-out: pIC50 (converted)) | CC50 at 48 h (in vitro; CC50) | CC50 at 48 h (in vitro; pCC50) | IC50 (SARS-CoV-2 [3]; [4]) | IC50 (SARS-CoV-2 [3]; [5]) | other results
COc1cccc([C@@H](C)NCCCc2ccccc2Cl)c1 | > 20 µM | < 4.7 | 16.6 µM | 16.6 µM | 28.2 µM | 28.2 µM | > 100 µM | > 100 µM | 
CNCC(O)C(O)C(O)C(O)CO.Cc1c(Nc2ncccc2C(=O)O)cccc1C(F)(F)F |  | < 4.7 |  |  |  |  |  |  | 
CC(C)(NC(=O)O[C@@H]1CN2CCC1CC2)c1csc(-c2ccc(F)cc2)n1 | > 20 µM | < 4.7 |  |  |  |  |  |  | 
O=C(O)Cc1cn(-c2ccccc2)nc1-c1ccc(Cl)cc1.O=C(O)Cc1cn(-c2ccccc2)nc1-c1ccc(Cl)cc1.[Ca+2] |  | < 4.7 |  |  |  |  |  |  | 
CNC[C@H]1C[C@@H]2c3ccccc3Cc3ccc(F)cc3[C@H]2O1 |  |  | > 100 µM | > 100 µM | 19.5 µM | 19.5 µM | > 100 µM | > 100 µM | CC50 (Vero C1008; 48 h): ~22.4 µM; pCC50 (Vero C1008; 48 h): ~ 4.65; pIC50 (SARS-CoV-2 [3]; vero c1008): < 4.3; IC50 (SARS-CoV-2 [3]; vero c1008, read-out: IC50): > 50.1 µM
O=C(O)c1cc(=O)c2c(OCC(O)COc3cccc4oc(C(=O)O)cc(=O)c34)cccc2o1.[NaH] |  | < 4.7 |  |  |  |  |  |  | 
O=c1cnn([C@@H]2O[C@H](CO)[C@@H](O)[C@H]2O)c(=O)[nH]1 [6-AZAURIDINE] | > 100 µM |  |  |  |  |  |  |  | 
COC(=O)C1=C(C)NC(C)=C(C(=O)OC2CCCN(Cc3ccccc3)C2)C1c1cccc([N+](=O)[O-])c1 (centres undefined) [BENIDIPINE] | > 100 µM |  |  |  | 14.8 µM | 14.8 µM | > 100 µM | > 100 µM | 
O=[N+]([O-])c1ccc(Cl)c([N+](=O)[O-])c1 [DINITROCHLOROBENZENE] | > 20 µM | < 4.7 |  |  |  |  |  |  | 
O=S(=O)(O)c1cc(O)ccc1O [DOBESILIC ACID] |  | < 4.7 |  |  |  |  |  |  | 
CN(C)c1ccc(O)c2c1C[C@H]1C[C@H]3[C@H](N(C)C)C(O)=C(C(N)=O)C(=O)[C@@]3(O)C(O)=C1C2=O.Cl [MINOCYCLINE HYDROCHLORIDE] |  | < 4.7 |  |  |  |  |  |  | 
OC(CNCC(O)C1CCc2cc(F)ccc2O1)C1CCc2cc(F)ccc2O1 (centres undefined) [NEBIVOLOL] | > 20 µM | < 4.7 | > 10 µM | > 10 µM | 8.71 µM | 8.71 µM | > 100 µM | > 100 µM | 
CC(Cc1ccccc1)NCCC(c1ccccc1)c1ccccc1 (centres undefined) [PRENYLAMINE] | 8.51 µM and > 20 µM | 5.07 and < 4.7 |  |  | 10.7 µM | 10.7 µM | > 100 µM | > 100 µM | 
Cc1c(CN2CCN(c3cccc(C(F)(F)F)c3)CC2)cc(-c2ccccc2)n1NC(=O)c1ccncc1 [SUDOTERB] |  |  | > 100 µM | > 100 µM | ~14.3 µM | ~14.1 µM | > 100 µM | > 100 µM | 
CC1(C)[C@H](C(=O)[O-])N2C(=O)C[C@H]2S1(=O)=O.[Na+] [SULBACTAM SODIUM] |  | < 4.7 |  |  |  |  |  |  | 
CCCCCCCCNC(C)C(O)c1ccc(SC(C)C)cc1 (centres undefined) [SULOCTIDIL] | > 100 µM |  |  |  | 3.27 µM | 3.24 µM | > 100 µM | > 100 µM | 
Cc1cc2cc(Oc3ccnc(Nc4cccc(CS(=O)(=O)NCCN(C)C)c4)n3)ccc2[nH]1 [SURUFATINIB] |  |  | > 10 µM | > 10 µM | 4.9 µM | 4.9 µM | > 50.1 µM | > 50.1 µM | 
COc1cc2c(N3CCN(C(=O)Nc4ccc(OC(C)C)cc4)CC3)ncnc2cc1OCCCN1CCCCC1 [TANDUTINIB] |  |  | > 100 µM | > 100 µM | 11.5 µM | 11.5 µM | > 100 µM | > 100 µM | 
CN1CCC(COc2cnc(-c3cccc(Cn4nc(-c5cccc(C#N)c5)ccc4=O)c3)nc2)CC1 [TEPOTINIB] |  |  | > 100 µM | > 100 µM | 5.75 µM | 5.75 µM | > 100 µM | > 100 µM | 

Compound | IC50 (SARS-CoV-2 [1]) | pIC50 (SARS-CoV-2 [1]) | IC50 (SARS-CoV-2 [2]) | IC50 (SARS-CoV-2 [2]; read-out: pIC50 (converted)) | CC50 at 48 h (in vitro; CC50) | CC50 at 48 h (in vitro; pCC50) | IC50 (SARS-CoV-2 [3]; [4]) | IC50 (SARS-CoV-2 [3]; [5]) | other results
CC(C)N1CCN(c2ccc(OCC3COC(Cn4cncn4)(c4ccc(Cl)cc4Cl)O3)cc2)CC1 (centres undefined) [TERCONAZOLE] |  |  | 16.6 µM | 16.6 µM | ~10 µM | ~10 µM | > 12.6 µM | > 12.6 µM | 
CC(C)(C)c1ccc(C(O)CCCN2CCC(C(O)(c3ccccc3)c3ccccc3)CC2)cc1 (centres undefined) [TERFENADINE] |  |  | > 100 µM | > 100 µM | ~5.13 µM | ~5.13 µM | > 100 µM | > 100 µM | 
Cc1c(-c2ccccc2)oc2c(C(=O)OC(C)(C)CN3CCCCC3)cccc2c1=O [TERFLAVOXATE] |  |  | > 100 µM | > 100 µM | ~63.1 µM | ~63.1 µM | > 100 µM | > 100 µM | 
CN1CCN(CCCN2c3ccccc3Sc3ccc(S(=O)(=O)N(C)C)cc32)CC1 [THIOPROPERAZINE] |  |  | 13.2 µM | 13.2 µM | 6.31 µM | 6.31 µM | > 100 µM | > 100 µM | 
CN1CCN(CC/C=C2/c3ccccc3Sc3ccc(S(=O)(=O)N(C)C)cc32)CC1 [THIOTHIXENE] |  |  | > 100 µM | > 100 µM | 4.96 µM | 4.9 µM | 5.75 µM | 5.75 µM | 
CCCSc1ccccc1N1CCN(CCCCn2c(=O)[nH]c3ccccc3c2=O)CC1 [TIOPERIDONE] |  |  | 9.12 µM | 9.12 µM | 7.24 µM | 7.24 µM | > 100 µM | > 100 µM | 
O=C1CC2(CCCC2)CC(=O)N1CCCCN1CCN(c2nsc3ccccc23)CC1 [TIOSPIRONE] |  |  | > 100 µM | > 100 µM | 24.6 µM | 24.5 µM | > 100 µM | > 100 µM | 
Cn1cncc1[C@@](N)(c1ccc(Cl)cc1)c1ccc2c(c1)c(-c1cccc(Cl)c1)cc(=O)n2C [TIPIFARNIB] |  |  | > 100 µM | > 100 µM | 13.3 µM | 13.2 µM | > 100 µM | > 100 µM | 
CC(C)CN(C[C@@H](O)[C@H](Cc1ccccc1)NC(=O)O[C@H]1CO[C@H]2OCC[C@H]21)S(=O)(=O)c1ccc2nc(NC3CCN(C4CCCC4)CC3)sc2c1 [TMC 310911] |  |  | 3.94 µM | 3.89 µM | ~13 µM | ~12.9 µM | ~9.55 µM | ~9.55 µM | 
Cc1cc(C)c2nc(-c3cnc(NCCCC4CCN(C)CC4)nc3C)[nH]c2c1 [TOREFORANT] |  |  | > 25.1 µM | > 25.1 µM | 22.4 µM | 22.4 µM | > 50.1 µM | > 50.1 µM | 
CCOC1O[C@H]([C@@H](COCc2ccccc2)OCc2ccccc2)[C@H](OCc2ccccc2)[C@H]1O (some centres undefined) [TRIBENOSIDE] |  |  | > 50.1 µM | > 50.1 µM | 17.4 µM | 17.4 µM | > 50.1 µM | > 50.1 µM | 
CN1CCN(CCCN2c3ccccc3Sc3ccc(C(F)(F)F)cc32)CC1 [TRIFLUOPERAZINE] |  |  | 6.46 µM | 6.46 µM | 7.94 µM | 7.94 µM | > 100 µM | > 100 µM | 
CC[C@@H]1C(=O)N(C)c2cnc(Nc3ccc(C(=O)N[C@H]4CC[C@H](N5CCN(CC6CC6)CC5)CC4)cc3OC)nc2N1C(C)C [VOLASERTIB] |  |  | > 50.1 µM | > 50.1 µM | 0.234 µM | 0.234 µM | > 50.1 µM | > 50.1 µM | 
CN(C)CCOC1=Cc2ccccc2Sc2ccc(Cl)cc21 [ZOTEPINE] |  |  | > 100 µM | > 100 µM | 12.3 µM | 12.3 µM | > 100 µM | > 100 µM | 
OCCN1CCN(CC/C=C2/c3ccccc3Sc3ccc(Cl)cc32)CC1 [ZUCLOPENTHIXOL] | 7.24 µM and > 20 µM | 5.14 and < 4.7 |  |  | 6.68 µM | 6.61 µM | > 100 µM | > 100 µM | 
ATSM COPPER (II) | > 20 µM | < 4.7 |  |  |  |  |  |  | 
FLUPENTIXOL | 8.71 µM and > 20 µM | 5.06 and < 4.7 |  |  |  |  |  |  | CC50 (Vero C1008): 7.67 µM; pCC50 (Vero C1008): 5.12; pIC50 (SARS-CoV-2 [3]; vero c1008): < 4; IC50 (SARS-CoV-2 [3]; vero c1008, read-out: IC50): > 100 µM
NYSTATIN | > 20 µM | < 4.7 |  |  |  |  |  |  | 
RAUWOLFIA SERPENTINA | > 20 µM | < 4.7 |  |  |  |  |  |  | 
